pKi: −log10 of the molar value. Some results are limits rather than exact numbers.

The values below come from ChEMBL document CHEMBL1137966, “Thrombin inhibitors built on an azaphenylalanine scaffold” (Bioorg Med Chem Lett, 2004).

For one assay, the target named is Serine protease 1 (Homo sapiens, UniProt P07477). Description: In vitro inhibition of trypsin.
The target of another assay is Coagulation factor X (Homo sapiens, UniProt P00742). The experiment in a line: In vitro inhibition of Coagulation factor X.
Sequence of Coagulation factor X (P00742 41-179 limits assumed): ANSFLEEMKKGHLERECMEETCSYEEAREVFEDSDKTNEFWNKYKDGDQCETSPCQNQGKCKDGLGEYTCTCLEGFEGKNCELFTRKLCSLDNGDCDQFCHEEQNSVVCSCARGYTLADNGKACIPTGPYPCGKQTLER
Sequence of Coagulation factor X (P00742 235-488 limits assumed): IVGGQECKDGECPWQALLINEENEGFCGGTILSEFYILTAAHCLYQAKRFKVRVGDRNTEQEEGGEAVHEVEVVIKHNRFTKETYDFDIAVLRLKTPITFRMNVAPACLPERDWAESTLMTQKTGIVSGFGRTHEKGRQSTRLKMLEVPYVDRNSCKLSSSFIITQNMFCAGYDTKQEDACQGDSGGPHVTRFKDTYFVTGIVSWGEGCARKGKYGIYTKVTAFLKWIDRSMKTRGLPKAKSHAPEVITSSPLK
For another assay, the target named is Prothrombin (Homo sapiens, UniProt P00734).

Sequence of Serine protease 1 (P07477 whole entry): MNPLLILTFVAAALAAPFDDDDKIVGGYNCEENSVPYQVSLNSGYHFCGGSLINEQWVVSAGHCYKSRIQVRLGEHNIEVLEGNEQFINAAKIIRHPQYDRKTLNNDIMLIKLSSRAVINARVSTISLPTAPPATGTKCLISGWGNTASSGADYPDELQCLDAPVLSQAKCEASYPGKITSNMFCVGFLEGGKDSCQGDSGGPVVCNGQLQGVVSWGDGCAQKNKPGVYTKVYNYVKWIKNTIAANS
Description for Prothrombin: In vitro inhibition of human alpha-thrombin

With `N/C(=N\O)c1cccc(CN(NS(=O)(=O)c2ccc3ccccc3c2)C(=O)N2CCCCCC2)c1`, the pKi at Serine protease 1 is 4.49; on Coagulation factor X, less than 4.12.

Consider `N=C(N)c1ccc(CN(NS(=O)(=O)c2ccc3ccccc3c2)C(=O)N2CCCCC2)cc1`, for which the pKi at Serine protease 1 was 4.89; on Prothrombin, 7.02; on Coagulation factor X, 4.18.

For the compound `N=C(N)c1ccc(CN(NS(=O)(=O)c2ccc3ccccc3c2)C(=O)N2CCCCCC2)cc1`, the pKi was 5.00 at Serine protease 1 and 4.16 on Coagulation factor X.

Regarding `CC1CCCCN1C(=O)N(Cc1cccc(C(=N)NO)c1)NS(=O)(=O)c1ccc2ccccc2c1` (stereo unspecified), the pKi at Serine protease 1 is 4.17; at Coagulation factor X, 5.27.

`N=C(N)c1ccc(CN(NS(=O)(=O)c2ccc(-c3ccccc3)cc2)C(=O)N2CCCCCC2)cc1`: the pKi on Serine protease 1 is 4.64; on Prothrombin, 6.82.

With `COc1ccc2cc(S(=O)(=O)NN(Cc3cccc(C(=N)NO)c3)C(=O)N3CCCCC3C)ccc2c1` (stereo unspecified), the pKi on Serine protease 1 is 4.33; on Prothrombin it was 5.38; at Coagulation factor X, 3.95.

For `CC1CCCCN1C(=O)N(Cc1ccc(C(=N)N)cc1)NS(=O)(=O)c1ccc2ccccc2c1` (stereo unspecified), the negative logarithm of the Ki (pKi) at Serine protease 1 is 4.59; on Prothrombin it was 7.07; at Coagulation factor X, 4.28.

Turning to `N/C(=N\O)c1ccc(CN(NS(=O)(=O)c2ccc3ccccc3c2)C(=O)N2CCCCC2)cc1`, the pKi at Serine protease 1 was less than 4.17; on Coagulation factor X, less than 4.12.

`CC1CCN(C(=O)N(Cc2ccc(C(=N)NO)cc2)NS(=O)(=O)c2ccc3ccccc3c2)CC1`: the pKi on Serine protease 1 is less than 4.17; at Prothrombin, 6.11; on Coagulation factor X, less than 4.12.

Take `COc1ccc2cc(S(=O)(=O)NN(Cc3ccc(C(=N)N)cc3)C(=O)N3CCC(C)CC3)ccc2c1`: the pKi on Serine protease 1 was 4.74; at Prothrombin, 7.35; at Coagulation factor X it was less than 4.12.

As to `CC1CCN(C(=O)N(Cc2cccc(C(=N)N)c2)NS(=O)(=O)c2ccc3ccccc3c2)CC1`, the pKi on Serine protease 1 is 6.96; at Coagulation factor X, 5.28.

Take `COc1ccc2cc(S(=O)(=O)NN(Cc3ccc(C(=N)NO)cc3)C(=O)N3CCC(C)CC3)ccc2c1`: the pKi at Serine protease 1 was less than 4.17; on Prothrombin it was 6.42; on Coagulation factor X it was less than 4.12.

With `COc1ccc2cc(S(=O)(=O)NN(Cc3cccc(C(=N)N)c3)C(=O)N3CCCCCC3)ccc2c1`, the negative logarithm of the Ki (pKi) on Serine protease 1 was 7.28; at Coagulation factor X, 5.52.

`CC1CCCCN1C(=O)N(Cc1ccc(C(=N)NO)cc1)NS(=O)(=O)c1ccc2ccccc2c1` (stereo unspecified): the pKi at Serine protease 1 was 4.35; at Prothrombin, 6.37; at Coagulation factor X it was less than 4.12.

`CC1CCN(C(=O)N(Cc2cccc(C(=N)NO)c2)NS(=O)(=O)c2ccc3ccccc3c2)CC1`: the figures for the negative-log Ki (pKi) on Serine protease 1 and at Coagulation factor X were less than 4.17 and less than 4.12, respectively.

`N/C(=N\O)c1ccc(CN(NS(=O)(=O)c2ccc3ccccc3c2)C(=O)N2CCCCCC2)cc1`: the pKi was 4.89 at Serine protease 1, 6.68 at Prothrombin and less than 4.12 at Coagulation factor X.

Turning to `N/C(=N\O)c1ccc(CN(NS(=O)(=O)c2ccc(-c3ccccc3)cc2)C(=O)N2CCCCCC2)cc1`, the pKi was less than 3.40 on Serine protease 1 and 5.80 on Prothrombin.

In the case of `N=C(N)c1cccc(CN(NS(=O)(=O)c2ccc3ccccc3c2)C(=O)N2CCCCCC2)c1`, the pKi at Serine protease 1 is 6.85; at Coagulation factor X it was 5.41.

For the compound `COc1ccc2cc(S(=O)(=O)NN(Cc3cccc(C(=N)NO)c3)C(=O)N3CCCCCC3)ccc2c1`, the pKi at Serine protease 1 was 4.77; at Coagulation factor X it was 3.99.

Broadly, the pKi is the Ki on a negative log10 scale, so that one unit is a factor of ten. A lower pKi goes with a large Ki.
